Assay results taken from patent US20250206732A1, “COMPOUNDS AND METHODS FOR THE TARGETED DEGRADATION OF KRAS” (Arvinas Operations, Inc., priority 2022, published 2025).

Biological target: T1, AsPC-1 HiBiT-KRASG12D (Homo sapiens, UniProt P01116, G12D)
T1 construct: insert the HiBiT tag onto the N-terminus of one or more of the endogenous KRAS alleles; endogenous in cells; host or cells: AsPC-1 (ATCC CRL-1682), CRISPR-Cas9 knock-in clone, one tagged allele
Test: HiBiT degradation assay (G12D), AsPC-1 HiBiT-KRASG12D cells
Assay type: cell-based
Details: 24 hours treatment; for Dmax: ASPC1, AsPC-1 HiBiT-KRASG12D cells; for Dmax / AsPC-1 HiBiT-KRASG12D DMax: maximum degradation observed; for DC50 / AsPC-1 HiBiT-KRASG12D DMax: AsPC-1 HiBiT-KRASG12D cells; for DC50: HiBiT luminescence
Procedure, shortened: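 Luminescence read-out of HiBiT-tagged endogenous KRASG12D in AsPC-1 cells after 24 h compound exposure at 37° C; lytic Nano-Glo HiBiT detection, 45 min at room temperature. A parallel alamar blue read (4 h) checked viability, normalized to DMSO-only controls.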

T1 sequence (P01116 1-188 isoform P01116-2 G12D): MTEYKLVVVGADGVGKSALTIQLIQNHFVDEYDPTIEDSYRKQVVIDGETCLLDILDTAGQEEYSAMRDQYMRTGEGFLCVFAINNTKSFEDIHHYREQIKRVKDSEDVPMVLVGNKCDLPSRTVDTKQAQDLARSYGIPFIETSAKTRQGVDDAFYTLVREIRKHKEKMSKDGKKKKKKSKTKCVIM

SMILES | Dmax | DC50 | AsPC-1 HiBiT-KRASG12D DMax
CCc1cccc2cc(O)cc(-c3ncc4c(N5CC6CCC(C5)N6)nc(OCCN5CCC(CN6CCN(c7cc([C@H](C(=O)N8C[C@H](O)C[C@H]8C(=O)N[C@@H](C)c8ccc(-c9scnc9C)cc8)C(C)C)on7)CC6)CC5)nc4c3F)c12 (relative stereo) [Compound 276] | 80 to 100% | < 0.6 µM | 
C#Cc1c(F)ccc2cc(O)cc(-c3ncc4c(N5CC6CCC(C5)N6)nc(OCCN5CCC(COc6cc([C@H](C(=O)N7C[C@H](O)C[C@H]7C(=O)N[C@@H](C)c7ccc(-c8ccnn8C)cc7)C(C)C)on6)CC5)nc4c3F)c12 (relative stereo) [Compound 85, (2S,4R)-1-[(2R*)-2-{3-[(1-{2-[(4-{3,8-diazabicyclo[3.2.1]octan-3-yl}-7-(8-ethynyl-7-fluoro-3-hydroxynaphthalen-1-yl)-8-fluoropyrido[4,3-d]pyrimidin-2-yl)oxy]ethyl}piperidin-4-yl)methoxy]-1,2-oxazol-5-yl}-3-methylbutanoyl]-4-hydroxy-N-[(1S)-1-[4-(1-methyl-1H-pyrazol-5-yl)phenyl]ethyl]pyrrolidine-2-carboxamide] | 80 to 100% | < 0.6 µM | 
CCc1cccc2cc(O)cc(-c3ncc4c(N5CC6CCC(C5)N6)nc(OCCN5CCC(CC6CCN(c7cc(C(C(=O)N8C[C@H](O)C[C@H]8C(=O)N[C@@H](C)c8ccc(-c9scnc9C)cc8)C(C)C)on7)CC6)CC5)nc4c3F)c12 (single isomer, unassigned) [Compound 321] |  | 0.6 to 1 µM | C (20% <C ≤ 60%)
CCc1cccc2cc(O)cc(-c3ncc4c(N5CC6CCC(C5)N6)nc(OCCN5CCC(CC6CN(c7cc([C@@H](C(=O)N8C[C@H](O)C[C@H]8C(=O)N[C@@H](C)c8ccc(-c9ccnn9C)cc8)C(C)C)on7)C6)CC5)nc4c3F)c12 (single isomer, unassigned) [Compound 265, (2S,4R)-1-[(2R*)-2-(3-{3-[(1-{2-[(4-{3,8-diazabicyclo[3.2.1]octan-3-yl}-7-(8-ethyl-3-hydroxynaphthalen-1-yl)-8-fluoropyrido[4,3-d]pyrimidin-2-yl)oxy]ethyl}piperidin-4-yl)methyl]azetidin-1-yl}-1,2-oxazol-5-yl)-3-methylbutanoyl]-4-hydroxy-N-[(1S)-1-[4-(1-methyl-1H-pyrazol-5-yl)phenyl]ethyl]pyrrolidine-2-carboxamide] | 60 to 80% | 1 to 3 µM | 
C#Cc1c(F)ccc2cccc(-c3ncc4c(N5CC6CCC(C5)N6)nc(OC[C@]56CCCN5[C@H](COc5cc([C@H](C(=O)N7C[C@H](O)C[C@H]7C(=O)N[C@@H](C)c7ccc(-c8scnc8C)cc7)C(C)C)on5)CC6)nc4c3F)c12 [Compound 316, (2S,4R)-1-[(2S)-2-[3-[[(3S,8R)-8-[[4-(3,8-diazabicyclo[3.2.1]octan-3-yl)-7-(8-ethynyl-7-fluoro-1-naphthyl)-8-fluoro-pyrido[4,3-d]pyrimidin-2-yl]oxymethyl]-1,2,3,5,6,7-hexahydropyrrolizin-3-yl]methoxy]isoxazol-5-yl]-3-methyl-butanoyl]-4-hydroxy-N-[(1S)-1-[4-(4-methylthiazol-5-yl)phenyl]ethyl]pyrrolidine-2-carboxamide] | 20 to 60% | < 0.6 µM | 
C#Cc1c(F)ccc2cc(O)cc(-c3ncc4c(N5CC6CCC(C5)N6)nc(OCCN5CCC(CC6CCN(c7cc([C@@H](C(=O)N8C[C@H](O)C[C@H]8C(=O)N[C@@H](C)c8ccc(-c9scnc9C)cc8)C(C)C)on7)CC6)CC5)nc4c3F)c12 (single isomer, unassigned) [Compound 308] | 60 to 80% | < 0.6 µM | 
CCc1cccc2cccc(-c3ncc4c(N5CC6CCC(C5)N6C(=O)OC(C)(C)C)nc(OC[C@]56CCCN5[C@H](COC(=O)N5CCN(c7cc([C@H](C(=O)N8C[C@H](O)C[C@H]8C(=O)N[C@@H](C)c8ccc(-c9scnc9C)cc8)C(C)C)on7)[C@H](C)C5)CC6)nc4c3F)c12 [Compound 226, tert-butyl 3-[7-(8-ethyl-1-naphthyl)-8-fluoro-2-[[(3S,8R)-3-[[(3R)-4-[5-[(1R)-1-[(2S,4R)-4-hydroxy-2-[[(1S)-1-[4-(4-methylthiazol-5-yl)phenyl]ethyl]carbamoyl]pyrrolidine-1-carbonyl]-2-methyl-propyl]isoxazol-3-yl]-3-methyl-piperazine-1-carbonyl]oxymethyl]-1,2,3,5,6,7-hexahydropyrrolizin-8-yl]methoxy]pyrido[4,3-d]pyrimidin-4-yl]-3,8-diazabicyclo[3.2.1]octane-8-carboxylate] |  | < 0.6 µM | A (80% < A ≤ 100%)
CCc1cccc2cc(O)cc(-c3ncc4c(N5CC6CCC(C5)N6)nc(OC[C@]56CCCN5[C@H](COC(=O)N5CC(COc7cc([C@H](C(=O)N8C[C@H](O)C[C@H]8C(=O)N[C@@H](C)c8ccc(-c9scnc9C)cc8)C(C)C)on7)C5)CC6)nc4c3F)c12 [Compound 121, [(3S,7aR)-7a-{[(4-{3,8-diazabicyclo[3.2.1]octan-3-yl}-7-(8-ethyl-3-hydroxynaphthalen-1-yl)-8-fluoropyrido[4,3-d]pyrimidin-2-yl)oxy]methyl}-hexahydro-1H-pyrrolizin-3-yl]methyl 3-[({5-[(2R)-1-[(2S,4R)-4-hydroxy-2-{[(1S)-1-[4-(4-methyl-1,3-thiazol-5-yl)phenyl]ethyl]carbamoyl}pyrrolidin-1-yl]-3-methyl-1-oxobutan-2-yl]-1,2-oxazol-3-yl}oxy)methyl]azetidine-1-carboxylate] | 80 to 100% | < 0.6 µM | 
C#Cc1c(F)ccc2cc(O)cc(-c3ncc4c(N5CC6CCC(C5)N6)nc(OCCN5CCC(CC6(F)CCN(CC(=O)N[C@H](C(=O)N7C[C@H](O)C[C@H]7C(=O)N[C@@H](C)c7ccc(-c8scnc8C)cc7)C(C)(C)C)CC6)CC5)nc4c3F)c12 [Compound 157, (2S,4R)-1-[(2S)-2-(2-{4-[(1-{2-[(4-{3,8-diazabicyclo[3.2.1]octan-3-yl}-7-(8-ethynyl-7-fluoro-3-hydroxynaphthalen-1-yl)-8-fluoropyrido[4,3-d]pyrimidin-2-yl)oxy]ethyl}piperidin-4-yl)methyl]-4-fluoropiperidin-1-yl}acetamido)-3,3-dimethylbutanoyl]-4-hydroxy-N-[(1S)-1-[4-(4-methyl-1,3-thiazol-5-yl)phenyl]ethyl]pyrrolidine-2-carboxamide] | 80 to 100% | < 0.6 µM | 
CCc1cccc2cc(O)cc(-c3ncc4c(N5CC6CCC(C5)N6)nc(OCCN5CCC(CCC6CN(c7cc([C@@H](C(=O)N8C[C@H](O)C[C@H]8C(=O)N[C@@H](C)c8ccc(-c9scnc9C)cc8)C(C)C)on7)C6)CC5)nc4c3F)c12 (single isomer, unassigned) [Compound 253, (2S,4R)-1-[(2R*)-2-(3-{3-[2-(1-{2-[(4-{3,8-diazabicyclo[3.2.1]octan-3-yl}-7-(8-ethyl-3-hydroxynaphthalen-1-yl)-8-fluoropyrido[4,3-d]pyrimidin-2-yl)oxy]ethyl}piperidin-4-yl)ethyl]azetidin-1-yl}-1,2-oxazol-5-yl)-3-methylbutanoyl]-4-hydroxy-N-[(1S)-1-[4-(4-methyl-1,3-thiazol-5-yl)phenyl]ethyl] pyrrolidine-2-carboxamide] | 20 to 60% | 1 to 3 µM | 
CCc1cccc2cc(O)cc(-c3ncc4c(N5CC6CCC(C5)N6)nc(OCCN5CCC(COCC(=O)N[C@H](C(=O)N6C[C@H](O)C[C@H]6C(=O)N[C@@H](C)c6ccc(-c7scnc7C)c(Cl)c6)C(C)(C)C)CC5)nc4c3F)c12 [Compound 332, (2S,4R)—N-[(1S)-1-[3-chloro-4-(4-methyl-1,3-thiazol-5-yl)phenyl]ethyl]-1-[(2S)-2-{2-[(1-{2-[(4-{3,8-diazabicyclo[3.2.1]octan-3-yl}-7-(8-ethyl-3-hydroxynaphthalen-1-yl)-8-fluoropyrido[4,3-d]pyrimidin-2-yl)oxy]ethyl}piperidin-4-yl)methoxy]acetamido}-3,3-dimethylbutanoyl]-4-hydroxypyrrolidine-2-carboxamide] | 80 to 100% | 0.6 to 1 µM | 
CCc1cccc2cc(O)cc(-c3ncc4c(N5CC6CCC(C5)N6)nc(OCCN5CCC(C(C)(C)N6CCN(c7cc([C@@H](C(=O)N8C[C@H](O)C[C@H]8C(=O)N[C@@H](C)c8ccc(-c9scnc9C)cc8)C(C)C)on7)CC6)CC5)nc4c3F)c12 (single isomer, unassigned) [Compound 254, (2S,4R)-1-[(2R*)-2-(3-{4-[2-(1-{2-[(4-{3,8-diazabicyclo[3.2.1]octan-3-yl}-7-(8-ethyl-3-hydroxynaphthalen-1-yl)-8-fluoropyrido[4,3-d]pyrimidin-2-yl)oxy]ethyl}piperidin-4-yl)propan-2-yl]piperazin-1-yl}-1,2-oxazol-5-yl)-3-methylbutanoyl]-4-hydroxy-N-[(1S)-1-[4-(4-methyl-1,3-thiazol-5-yl)phenyl]ethyl] pyrrolidine-2-carboxamide] | 20 to 60% | 0.6 to 1 µM | 
C#Cc1c(F)ccc2cc(O)cc(-c3ncc4c(N5CC6CCC(C5)N6)nc(OCCN5CCC(COc6cc([C@@H](C(=O)N7C[C@H](O)C[C@H]7C(=O)N[C@@H](C)c7ccc(-c8ccnn8C)cc7)C(C)C)on6)CC5)nc4c3F)c12 (relative stereo) [Compound 86, (2S,4R)-1-[(2R*)-2-{3-[(1-{2-[(4-{3,8-diazabicyclo[3.2.1]octan-3-yl}-7-(8-ethynyl-7-fluoro-3-hydroxynaphthalen-1-yl)-8-fluoropyrido[4,3-d]pyrimidin-2-yl)oxy]ethyl}piperidin-4-yl)methoxy]-1,2-oxazol-5-yl}-3-methylbutanoyl]-4-hydroxy-N-[(1S)-1-[4-(1-methyl-1H-pyrazol-5-yl)phenyl]ethyl]pyrrolidine-2-carboxamide] | 80 to 100% | 1 to 3 µM | 
